According to patent publication US20260327239A1, “COMPOUNDS FOR COVALENT INHIBITION OF SHP2” (Purdue Research Foundation, priority 2023, published 2026):
“Also recorded” adds a separate entry of the source. Where two headings read alike, the source gives them in different places.

Tests used:
SHP2 (residues 224-528) = molecular target: T1, SHP2 (residues 224-528) (Homo sapiens, UniProt Q06124); test: Kinetic characterization of SHP2 inactivation (pNPP cleavage progress curves, kobs, kinact/KI); type: biochemical; settings: for kinact/KI / KI (inactivation) / kinact: substrate pNPP 3 mM, 100 nM SHP2, pH 7.0, 25° C; for fold decrease in efficacy: comparator not given
T1 construct: 4× solution of SHP2 (residues 224-528)
T1 sequence (Q06124 224-528): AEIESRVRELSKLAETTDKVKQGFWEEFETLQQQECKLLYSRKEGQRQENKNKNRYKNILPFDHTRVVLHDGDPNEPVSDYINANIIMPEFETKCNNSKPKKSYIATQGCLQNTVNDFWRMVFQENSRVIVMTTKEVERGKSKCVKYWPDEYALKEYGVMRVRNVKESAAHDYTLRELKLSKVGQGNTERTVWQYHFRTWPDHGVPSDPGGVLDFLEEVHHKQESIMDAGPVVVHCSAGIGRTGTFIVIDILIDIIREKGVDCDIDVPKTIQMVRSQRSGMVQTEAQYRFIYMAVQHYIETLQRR
Text: Covalent inhibitors work by forming a covalent bond with a reactive functional group in the target enzyme. Consequently, the kinetics for enzyme inactivation by a covalent inhibitor is not an equilibrium process as with reversible inhibition. The potency of a reversible inhibitor can be measured by its IC50 value. Unlike reversible inhibitors, where inhibition is only concentration-dependent, covalent inhibitors show both time- and concentration-dependent target inhibition (a covalent bond formation is a time-dependent event). If sufficient time is available, covalent inhibitors can completely neutralize the target, rather than go to equilibrium. As a result, the potency and selectivity of a covalent inhibitor cannot be determined by IC50 values; instead, the rate of inactivation of the target (kinact) and the inhibition constant (KI) were determined. The bimolecular rate constant (kinact/KI), was chosen to rank the potency of covalent inhibitors (Ruddraraju et al., 2017, Molecular Biosystems 13(7), 1257-1279).
PTPs catalyze the dephosphorylation of tyrosine-phosphorylated protein substrates through a conserved mechanism that relies on a catalytic cysteine residue (Zhang, Z.-Y et al., 2003, Prog. Nucleic Acid Research Molecular Biology, 73, 171-220). This provides a mechanistic rationale for the assessment of electrophilic Michael acceptors, such as those synthesized in the present disclosure as potential covalent inhibitors of the SHP2. The enzymatic cleavage of para-nitrophenyl phosphate by SHP2 was measured over time in the presence of 100 μM inhibitor or DMSO, to determine the observed first-order rate constant (kobs). Based on kobs values, compounds were further evaluated in a dose-dependent manner to determine the second-order rate constant (kinact/KI) indicating the overall efficacy of the compounds, which was used to assess the structure-activity relationship (SAR) for the analogs of interest and design additional analogs (see Table 1). […] It has been known that modifications to the electronegativity of substituents proximal to electrophilic centers alter the reactivity of the electrophile.
The efficacy of covalent inhibitors can be broken down into the initial reversible binding of the compounds (KI), and the rate of covalent bond formation and enzyme inactivation (kinact). These two constants can be used individually, or as a ratio to determine the overall efficacy of the inhibitor's efficacy. To investigate the contribution to reversible binding compound (34) was evaluated, which lacks the carbonyl of the Michael acceptor to prevent the formation of a covalent adduct.
Inhibitors were evaluated for their ability to inhibit the reaction catalyzed by SHP2 using para-nitrophenyl phosphate (pNPP) as a substrate at pH 7 and 25° C. A 2× solution of inhibitor was diluted into DMG buffer (50 mM 3,3-dimethylglutarate pH 7.0, 1 mM EDTA, ionic strength adjusted to 150 mM using NaCl) was added to a clear flat-bottom 96-well plate (Corning Costar Assay Plate #9017), and serially diluted 1.5-fold, resulting in 100 μL volumes of varying inhibitor concentrations. To this was added a 4× solution of pNPP (12 mM) in DMG buffer. The reaction was initialized by the addition of a 4× solution of SHP2 (residues 224-528), resulting in a final solution of: inhibitor (100-0 μM), pNPP (3 mM), and SHP2 (100 nM). The plate was then monitored for a change in absorbance ab […] using a CLARIOstar^Plus plate reader (BMG Labetch) over the course of an hour. The resulting progress curves for each inhibitor were imported into Graphpad Prism 9 (GraphPad Software, San Diego, CA (USA)), and a baseline correction analysis was completed for fitting purposes. Each curve was fit to the equation Y=V0×(1−e^−kobs*t)/kobs.^[17.22] The kobs values were then plotted against inhibitor concentrations. If the resulting graph was linear, the kinact/KI value was determined by the slope of that line and the 95% confidence interval (95% CI). […]

SHP2 = molecular target: T2, SHP2 (Homo sapiens, UniProt Q06124); test: Covalent adduct formation on SHP2 by intact protein LC-MS; type: binding; settings: 10 μM SHP2, 60 minutes; for Found Ligand Adduct (mass shift): intact protein LC-MS; for % SHP2 Reacted (overall adduct formation): PVSN at 20 μM, compound 37 at 10 μM
T2 construct: 4× solution of SHP2 (residues 224-528)
T2 sequence (Q06124 224-528): T1 sequence (Q06124 224-528)
Procedure: To validate covalent modification of SHP2 by the active compounds, adduct formation on SHP2 was measured by intact protein liquid chromatography-mass spectrometry (LC-MS). With intact protein LC-MS, multiply charged states of the protein species can be deconvoluted to achieve the total mass(es). Compounds were incubated with 10 μM SHP2 for 60 minutes before being quenched with acetonitrile for LC-MS analysis by electrospray ionization (ESI) in positive mode. […] (33), and (42) (FIGS. 3A and 3B).
To unfold protein and quench protein-ligand reactivity, 10 μL of treated or untreated 10 μM SHP2 was diluted in 40 μL of 80% (v/v) formic acid initially, followed by 150 μL of LC-MS buffer (50/50 water/acetonitrile with 0.1% formic acid). 20-25 pmol per sample was analyzed by LC/MS (Agilent 1260 Infinity II with a ZORBAX Rapid Resolution High Definition 300 Å Stable Bond C3, 2.1×100 mm, 1.8 μm column) attached to an Agilent 6129 quadrupole mass spectrometer in positive ion mode. The column was held at 45° C. Mobile solution A was 0.1% formic acid in water, and mobile phase B was 0.1% formic acid in acetonitrile. The gradient used was hold at 10% B for 5 min, increase linearly to 80% B for 15 min, and then hold at 80% B for 5 min. The mass data were collected at a range of 600-1500 m/z. Raw data were processed using MestReNova. For all samples, the deconvoluted mass was calculated by taking the m/z range of 730-1100 Da, and deconvoluted mass range from 36500-37200 Da. An abundance threshold of 10% and tolerance of 30 ppm was set for deconvolution. Unreacted SHP2's total deconvoluted mass was 36602±10 Da; for each deconvolution, the highest deconvoluted mass intensity was utilized as the mass pivot point to determine and identify reacted SHP2 adducts. To calculate the percent SHP2 reacted, the relative abundance intensity of reacted SHP2 was divided by the total relative abundance intensities of unreacted and reacted SHP2.

[1] = pH 7, role: inhibitor, read-out: kinact/KI (converted)

kinact/KI (SHP2 (residues 224-528); [1]) | Compound | SHP2 inhibition efficacy (in words) (SHP2 (residues 224-528); role: inhibitor) | also measured
291 M⁻¹ s⁻¹ | C=C1C(=O)[C@@]2(C(=O)N3CCN(c4ccc(C(C)(C)C)cc4)CC3)CC(=O)C[C@@H]1C2 [Compound 40] | – | –
39.6 M⁻¹ s⁻¹ | C=C1C(=O)[C@@]2(C(=O)N3CCN(c4ccccc4)CC3)CC(=O)C[C@@H]1C2 [Compound 30] | small improvement in efficacy | –
101 M⁻¹ s⁻¹ | C=C1C(=O)[C@@]2(C(=O)N3CCN(c4ccc(C)cc4)CC3)CC(=O)C[C@@H]1C2 [Compound 38] | – | KI (inactivation) (SHP2 (residues 224-528); role: inhibitor): 176 µM; kinact (SHP2 (residues 224-528); role: inhibitor): 0.0172 s⁻¹
220 M⁻¹ s⁻¹ | C=C1C(=O)[C@@]2(C(=O)N3CCN(c4ccc(Cl)cc4)CC3)CC(=O)C[C@@H]1C2 [Compound 36] | – | –
46.5 M⁻¹ s⁻¹ | C=C1C(=O)[C@@]2(C(=O)N3CCN(c4ccc(OC)cc4)CC3)CC(=O)C[C@@H]1C2 [Compound 39] | – | –
97.6 M⁻¹ s⁻¹ | C=C1C(=O)[C@@]2(C(=O)N3CCN(c4ccc(F)cc4)CC3)CC(=O)C[C@@H]1C2 [Compound 35] | – | KI (inactivation) (SHP2 (residues 224-528); role: inhibitor): 112 µM; kinact (SHP2 (residues 224-528); role: inhibitor): 0.0109 s⁻¹
367 M⁻¹ s⁻¹ | C=C1C(=O)[C@@]2(C(=O)N3CCN(c4ccc(Br)cc4)CC3)CC(=O)C[C@@H]1C2 [Compound 33] | – | KI (inactivation) (SHP2 (residues 224-528); role: inhibitor): 69.7 µM; kinact (SHP2 (residues 224-528); role: inhibitor): 0.0219 s⁻¹; Found Ligand Adduct (mass shift) (SHP2): 412 Da; % SHP2 Reacted (overall adduct formation) (SHP2): 30%
367 M⁻¹ s⁻¹ | C=C1C(=O)[C@@]2(C(=O)N3CCN(c4ccccc4C#N)CC3)CC(=O)C[C@@H]1C2 [Compound 32] | – | fold improvement in efficacy over the unsubstituted piperidine analog (19) (SHP2 (residues 224-528); role: inhibitor, kinact/KI relative to 19): approximately 19 fold; fold increase in efficacy relative to the unsubstituted phenyl ring (SHP2 (residues 224-528); role: inhibitor, kinact/KI relative to unsubstituted phenyl): 9.25 fold
3.52 M⁻¹ s⁻¹ | C=CS(=O)(=O)Oc1ccccc1 [PVSN, phenyl vinyl sulfonate, reference compound] | – | % SHP2 Reacted (overall adduct formation) (SHP2): 21%
311 M⁻¹ s⁻¹ | C=C1C(=O)[C@@]2(C(=O)N3CCN(c4ccc(-c5ccccc5)cc4)CC3)CC(=O)C[C@@H]1C2 [Compound 41] | – | KI (inactivation) (SHP2 (residues 224-528); role: inhibitor): 10.2 µM; kinact (SHP2 (residues 224-528); role: inhibitor): 0.00317 s⁻¹
417 M⁻¹ s⁻¹ | C=C1C(=O)[C@@]2(C(=O)N3CCN(c4ccc(C(F)(F)F)cc4)CC3)CC(=O)C[C@@H]1C2 [Compound 42] | – | fold increase in efficacy over compound 11 (SHP2 (residues 224-528); role: inhibitor, kinact/KI relative to 11): 29 fold; fold increase in efficacy compared to PVSN (SHP2 (residues 224-528); role: inhibitor, kinact/KI relative to PVSN): 119 fold; KI (inactivation) (SHP2 (residues 224-528); role: inhibitor): 47.8 µM; kinact (SHP2 (residues 224-528); role: inhibitor): 0.0199 s⁻¹; Found Ligand Adduct (mass shift) (SHP2): 410 Da; % SHP2 Reacted (overall adduct formation) (SHP2): 43%

Further lines, the compound ahead of its results:

Compound | kinact/KI (SHP2 (residues 224-528); [1]) | SHP2 inhibition efficacy (in words) (SHP2 (residues 224-528); role: inhibitor) | also measured
C=C1C(=O)[C@@]2(C(=O)N3CC4(COC4)C3)CC(=O)C[C@@H]1C2 [Compound 22] | 12.9 M⁻¹ s⁻¹ | – | fold decrease in efficacy (SHP2 (residues 224-528); role: inhibitor): ~2 fold
C=C1C(=O)[C@@]2(C(=O)N3CCCC3)CC(=O)C[C@@H]1C2 [Compound 17] | 13.4 M⁻¹ s⁻¹ | – | –
C=C1C(=O)[C@@]2(C(=O)N(CC)CC)CC(=O)C[C@@H]1C2 [Compound 12] | 17.5 M⁻¹ s⁻¹ | more effective than compound (11) and the cyclic matched molecular pair (MMP) compound (17) | –
C=C1C(=O)[C@@]2(C(=O)N3CCCCC3)CC(=O)C[C@@H]1C2 [Compound 19] | 19.4 M⁻¹ s⁻¹ | – | –
C=C1C(=O)[C@@]2(C(=O)N3CCC(F)(F)CC3)CC(=O)C[C@@H]1C2 [Compound 23] | 36.8 M⁻¹ s⁻¹ | more effective SHP2 inhibitor | kinact/KI (SHP2 (residues 224-528); role: inhibitor): 2,026.8 M^−1Min^−1
C=C1C(=O)[C@@]2(C(=O)N3CCCCCC3)CC(=O)C[C@@H]1C2 [Compound 20] | 22.7 M⁻¹ s⁻¹ | – | –
C=C1C(=O)[C@@]2(C(=O)N3CCOCC3)CC(=O)C[C@@H]1C2 [Compound 21] | 16 M⁻¹ s⁻¹ | – | fold decrease in efficacy (SHP2 (residues 224-528); role: inhibitor): ~2 fold
C=C1C(=O)[C@@]2(C(=O)N3CCN(C(C)=O)CC3)CC(=O)C[C@@H]1C2 [Compound 26] | 15.4 M⁻¹ s⁻¹ | able to inhibit the catalytic activity of SHP2 | –
C=C1C(=O)[C@@]2(C(=O)NCCC)CC(=O)C[C@@H]1C2 [Compound 11] | 14.3 M⁻¹ s⁻¹ | slightly less potent than compound (10) | kinact/KI (SHP2 (residues 224-528); role: inhibitor): 865.8 M^−1Min^−1
C=C1C(=O)[C@@]2(C(=O)N3CCN(C(=O)OC(C)(C)C)CC3)CC(=O)C[C@@H]1C2 [Compound 25] | 28.1 M⁻¹ s⁻¹ | able to inhibit the catalytic activity of SHP2 | –
C=C1CC2(C(=O)N3CCN(c4ccc(Br)cc4)CC3)CC(=O)CC1C2 (stereo not drawn) [Compound 34] | – | complete loss of SHP2 inhibition efficacy; also recorded: inactive against SHP2; also recorded: complete loss of activity | –
